{"source": "ChEMBL document CHEMBL5543084", "about": "“Development of cannabidiol derivatives as potent broad-spectrum antibacterial agents with membrane-disruptive mechanism” (Eur J Med Chem, 2024)", "key": {"[1]": {"test_system": "Escherichia coli", "experiment": "Antibacterial activity against Escherichia coli ATCC 25922 assessed as inhibition of bacterial growth incubated for 24 hrs by broth dilution method", "format": "functional"}, "[2]": {"test_system": "Acinetobacter baumannii", "experiment": "Antibacterial activity against Acinetobacter baumannii ATCC 17978 assessed as inhibition of bacterial growth incubated for 24 hrs by broth dilution method", "format": "functional"}, "[3]": {"test_system": "Klebsiella pneumoniae", "experiment": "Antibacterial activity against Klebsiella pneumoniae ATCC 10031 assessed as inhibition of bacterial growth incubated for 24 hrs by broth dilution method", "format": "functional"}, "[4]": {"test_system": "Pseudomonas aeruginosa", "experiment": "Antibacterial activity against Pseudomonas aeruginosa ATCC 9027 assessed as inhibition of bacterial growth incubated for 24 hrs by broth dilution method", "format": "functional"}, "[5]": {"test_system": "Klebsiella pneumoniae", "experiment": "Antibacterial activity against Klebsiella pneumoniae ATCC 10031 assessed as inhibition of bacterial growth incubated for 24 hrs in presence of 140 mM Na+ by broth dilution method", "format": "functional"}, "[6]": {"test_system": "Staphylococcus aureus", "experiment": "Antibacterial activity against methicillin-resistant Staphylococcus aureus NCTC 10442 assessed as inhibition of bacterial growth incubated for 24 hrs in presence of 2.5 mM Ca2+ by broth dilution method", "format": "functional"}, "[7]": {"test_system": "Klebsiella pneumoniae", "experiment": "Antibacterial activity against Klebsiella pneumoniae ATCC 10031 assessed as inhibition of bacterial growth incubated for 24 hrs in presence of 4.5 mM K+ by broth dilution method", "format": "functional"}, "[8]": {"test_system": "Staphylococcus aureus", "experiment": "Antibacterial activity against Staphylococcus aureus ATCC 29213 assessed as inhibition of bacterial growth incubated for 24 hrs in presence of 19 uM Zn2+ by broth dilution method", "format": "functional"}, "[9]": {"test_system": "Staphylococcus aureus", "experiment": "Antibacterial activity against Staphylococcus aureus ATCC 29213 assessed as inhibition of bacterial growth incubated for 24 hrs in presence of 20 uM Fe2+ by broth dilution method", "format": "functional"}, "[10]": {"test_system": "Staphylococcus aureus", "experiment": "Antibacterial activity against methicillin-resistant Staphylococcus aureus NCTC 10442 assessed as inhibition of bacterial growth incubated for 24 hrs in presence of 20 uM Fe2+ by broth dilution method", "format": "functional"}, "[11]": {"test_system": "Klebsiella pneumoniae", "experiment": "Antibacterial activity against Klebsiella pneumoniae ATCC 10031 assessed as inhibition of bacterial growth incubated for 24 hrs in presence of 20 uM Fe2+ by broth dilution method", "format": "functional"}, "[12]": {"test_system": "Escherichia coli", "experiment": "Antibacterial activity against Escherichia coli ATCC 25922 assessed as inhibition of bacterial growth incubated for 24 hrs in presence of 20 uM Fe3+ by broth dilution method", "format": "functional"}, "[13]": {"experiment": "Cytotoxicity against mouse fibroblast NCTC clone 929 cells assessed as viable cells at 6.25 microg/ml incubated for 24 hrs by CCK-8 assay", "format": "toxicity, cell-based", "settings": "NCTC clone 929 (L929) fibroblast cells, at 6.25 µg/mL, read-out: Activity"}, "[14]": {"experiment": "Cytotoxicity against mouse fibroblast NCTC clone 929 cells assessed as viable cells at 12.5 microg/ml incubated for 24 hrs by CCK-8 assay", "format": "toxicity, cell-based", "settings": "NCTC clone 929 (L929) fibroblast cells, at 12.5 µg/mL, read-out: Activity"}, "[15]": {"experiment": "Cytotoxicity against human HepG2 cells assessed as viable cells at 6.25 microg/ml incubated for 24 hrs by CCK-8 assay", "format": "toxicity, cell-based", "settings": "at 6.25 µg/mL, read-out: Activity"}, "[16]": {"experiment": "Cytotoxicity against human HepG2 cells assessed as viable cells at 12.5 microg/ml incubated for 24 hrs by CCK-8 assay", "format": "toxicity, cell-based", "settings": "at 12.5 µg/mL, read-out: Activity"}, "[17]": {"test_system": "Staphylococcus aureus", "experiment": "Bactericidal activity against methicillin-resistant Staphylococcus aureus NCTC 10442 assessed as bacterial reduction at 8 time of MIC concentration incubated for 0.5 hrs by time-kill assay", "format": "functional"}, "[18]": {"test_system": "Staphylococcus aureus", "experiment": "Bactericidal activity against methicillin-resistant Staphylococcus aureus NCTC 10442 assessed as bacterial killing at 8 time of MIC concentration incubated for 0.5 hrs by time-kill assay", "format": "functional"}, "[19]": {"test_system": "Cell membrane", "experiment": "Induction of cytoplasmic membrane permeabilization in methicilin-resistant Staphylococcus aureus […] assessed as disruption of cell membrane integrity by measuring increase in fluorescence intensity at 1 to 8 times of MIC concentration measured upto 60 mins by SYTOX green dye based fluorescence analysis", "format": "cell membranes", "settings": "NCTC 10442"}, "[20]": {"test_system": "Cell membrane", "experiment": "Induction of outer membrane permeabilization in Escherichia coli ATCC 25922 assessed as increase in fluorescence intensity at 1 to 8 times MIC concentration by NPN-dye based fluorescence analysis", "format": "cell membranes"}, "[21]": {"test_system": "Lipoteichoic acid", "experiment": "Displacement of BODIPY-TR-cadaverine from Bacillus subtilis lipoteichoic acid (LTA) assessed as increase in fluorescence intensity at 2 times MIC measured after 30 mins by fluorescence spectrophotometric analysis"}, "[22]": {"test_system": "Staphylococcus aureus", "experiment": "Bactericidal activity against methicillin-resistant Staphylococcus aureus NCTC 10442 assessed as up-regulation of molecular functions related gene expression by measuring aminoacyl-tRNA hydrolase activity (GO:0004045) at 4 times of MIC concentration measured after 90 mins incubation by RNA sequencing (RNA-seq) study", "format": "functional, organism-based"}, "[23]": {"test_system": "Staphylococcus aureus", "experiment": "(§1) Bactericidal activity against methicillin-resistant Staphylococcus aureus NCTC 10442 assessed as down-regulation of biological processes related gene expression by measuring UMP biosynthetic process (GO:0044,205) at 4 times of MIC concentration measured after 90 mins incubation by RNA sequencing (RNA-seq) study", "format": "functional, organism-based"}, "[24]": {"test_system": "Staphylococcus aureus", "experiment": "as §1, with “pyrimidine ribonucleoside monophosphate metabolic (GO:0009173)” for “UMP biosynthetic process (GO:0044,205)”", "format": "functional, organism-based"}, "[25]": {"test_system": "Escherichia coli", "experiment": "Bactericidal activity against Escherichia coli ATCC 25922 assessed as down-regulation down of ferroxidase activity (GO:0004322) at 4 times of MIC concentration measured after 90 mins incubation by RNA sequencing (RNA-seq) study", "format": "functional, organism-based"}, "[26]": {"test_system": "Escherichia coli", "experiment": "Bactericidal activity against Escherichia coli ATCC 25922 assessed as down-regulation of galactose metabolic process (GO:0006012) at 4 times of MIC concentration measured after 90 mins incubation by RNA sequencing (RNA-seq) study", "format": "functional, organism-based"}, "[27]": {"test_system": "Staphylococcus aureus", "experiment": "(§2) Bactericidal activity against methicillin-resistant Staphylococcus aureus NCTC 10442 assessed as change in amino acid metabolism gene expression at 4 times of MIC concentration measured after 90 mins incubation by RNA sequencing (RNA-seq) study", "format": "functional, organism-based"}, "[28]": {"test_system": "Escherichia coli", "experiment": "(§3) Bactericidal activity against Escherichia coli ATCC 25922 assessed as change in amino acid metabolism gene expression at 4 times of MIC concentration measured after 90 mins incubation by RNA sequencing (RNA-seq) study", "format": "functional, organism-based"}, "[29]": {"test_system": "Staphylococcus aureus", "experiment": "as §2, with “cell death associated gene expression by measuring down-regulation of quorum sensing gene DX983_RS05700” for “amino acid metabolism”", "format": "functional, organism-based"}, "[30]": {"test_system": "Escherichia coli", "experiment": "as §3, with “cell death associated gene expression by measuring down-regulation of CDPglycerol glycero-phosphotransferase (D1792_RS11350)” for “amino acid metabolism”", "format": "functional, organism-based"}, "[31]": {"test_system": "Escherichia coli", "experiment": "as §3, with “cell death associated gene expression by measuring down-regulation of glycosyltransferase family 2 (D1792_RS06385)” for “amino acid metabolism”", "format": "functional, organism-based"}, "[32]": {"test_system": "Escherichia coli", "experiment": "Bactericidal activity against Escherichia coli ATCC 25922 assessed as change in metabolic stress associated gene expression by measuring down-regulation of gale (DX983_RS06370) gene expression at 4 times of MIC concentration measured after 90 mins incubation by RNA sequencing (RNA-seq) study", "format": "functional, organism-based"}, "[33]": {"test_system": "Staphylococcus aureus", "experiment": "In vivo antibacterial activity against Staphylococcus aureus ATCC 29213 infected C57BL6 mouse corneal infection model assessed as reduction in bacterial burden at 3 mg/ml, TOP 4 times in a day for 3 consecutive days", "format": "functional", "settings": "time 3 day"}, "[34]": {"experiment": "Toxicity in C57BL6 mouse assessed as corneal damage treated in eyeballs 4 times in a day for 3 consecutive days", "settings": "in vivo, topical_or_ocular"}}, "note": "Calls of active or inactive are those of the source. No cut-off for these calls is given here."}
{"smiles": "C=C(C)[C@@H]1CCC(C)=C[C@H]1c1c(OCCCNC(=N)N)cc(CCCCC)cc1OCCCNC(=N)N", "values": [{"measurement": "MIC", "setting": "[1]", "value": 3.12, "unit": "µg/mL"}, {"measurement": "MIC", "setting": "[2]", "value": 3.12, "unit": "µg/mL"}, {"measurement": "MIC", "setting": "[3]", "value": 1.56, "unit": "µg/mL"}, {"measurement": "MIC", "setting": "[4]", "value": 6.25, "unit": "µg/mL"}, {"measurement": "MIC", "setting": "[5]", "value": 3.12, "unit": "µg/mL"}, {"measurement": "MIC", "setting": "[6]", "value": 0.39, "unit": "µg/mL"}, {"measurement": "MIC", "setting": "[7]", "value": 6.25, "unit": "µg/mL"}, {"measurement": "MIC", "setting": "[8]", "value": 0.78, "unit": "µg/mL"}, {"measurement": "MIC", "setting": "[9]", "value": 0.39, "unit": "µg/mL"}, {"measurement": "MIC", "setting": "[10]", "value": 0.39, "unit": "µg/mL"}, {"measurement": "MIC", "setting": "[11]", "value": 3.12, "unit": "µg/mL"}, {"measurement": "MIC", "setting": "[12]", "value": 1.56, "unit": "µg/mL"}, {"measurement": "viability at 24 h, 6.25 microg/ml", "setting": "[13]", "value": 86.2, "unit": "%"}, {"measurement": "viability at 24 h, 12.5 microg/ml", "setting": "[14]", "value": 80.4, "unit": "%"}, {"measurement": "viability at 24 h, 6.25 microg/ml", "setting": "[15]", "value": 91.3, "unit": "%"}, {"measurement": "viability at 24 h, 12.5 microg/ml", "setting": "[16]", "value": 91.3, "unit": "%"}, {"measurement": "Activity", "setting": "[17]", "value": 3, "unit": "log10FFU/ml"}, {"measurement": "inhibition (INH)", "setting": "[18]", "value": 99.9, "unit": "%"}, {"measurement": "Activity", "setting": "[19]", "value": "Active"}, {"measurement": "Activity", "setting": "[20]", "value": "Dose-Dependent Effect"}, {"measurement": "Activity", "setting": "[21]", "value": 19.8, "unit": "%"}, {"measurement": "Activity", "setting": "[22]", "value": "Active"}, {"measurement": "Activity", "setting": "[23]", "value": "Active"}, {"measurement": "Activity", "setting": "[24]", "value": "Active"}, {"measurement": "Activity", "setting": "[25]", "value": "Active"}, {"measurement": "Activity", "setting": "[26]", "value": "Active"}, {"measurement": "Activity", "setting": "[27]", "value": "Active"}, {"measurement": "Activity", "setting": "[28]", "value": "Active"}, {"measurement": "Activity", "setting": "[29]", "value": "Active"}, {"measurement": "Activity", "setting": "[30]", "value": "Active"}, {"measurement": "Activity", "setting": "[31]", "value": "Active"}, {"measurement": "Activity", "setting": "[32]", "value": "Active"}, {"measurement": "Activity", "setting": "[33]", "value": 6.99, "unit": "log10FFU/ml"}, {"measurement": "Activity", "setting": "[34]", "value": "Non-Toxic"}]}
